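In this assay, cells in 96-well plates receive the compound at five concentrations for 48 hours. Endpoints are linearly interpolated between the surrounding concentrations. The concentration for 50% growth inhibition is given as GI50. Definition used: TGI = concentration required for complete inhibition of growth.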
Columns and labels:
Test in all cases: DTP human tumour cell line panel, 48 h
HCT-116 colon = test system: HCT-116 colon
UACC-257 melanoma = test system: UACC-257 melanoma
NCI-H226 lung = test system: NCI-H226 lung
SK-OV-3 ovarian = test system: SK-OV-3 ovarian
SF-268 CNS = test system: SF-268 CNS
M14 melanoma = test system: M14 melanoma
HOP-92 NSCLC = test system: HOP-92 NSCLC
HCT-15 colon = test system: HCT-15 colon
OVCAR-8 ovarian = test system: OVCAR-8 ovarian
PC-3 prostate = test system: PC-3 prostate
RXF 393 renal = test system: RXF 393 renal
SR leukemia = test system: SR leukemia
OVCAR-3 ovarian = test system: OVCAR-3 ovarian
SK-MEL-28 melanoma = test system: SK-MEL-28 melanoma
UO-31 renal = test system: UO-31 renal
786-0 renal = test system: 786-0 renal
SF-295 CNS = test system: SF-295 CNS
A549 NSCLC = test system: A549 NSCLC
T-47D breast = test system: T-47D breast
U251 CNS = test system: U251 CNS
CCRF-CEM leukemia = test system: CCRF-CEM leukemia
SNB-75 CNS = test system: SNB-75 CNS
CAKI-1 renal = test system: CAKI-1 renal
RPMI-8226 leukemia = test system: RPMI-8226 leukemia
MALME-3M melanoma = test system: MALME-3M melanoma
DU-145 prostate = test system: DU-145 prostate
KM12 colon = test system: KM12 colon
EKVX NSCLC = test system: EKVX NSCLC
SNB-19 CNS = test system: SNB-19 CNS
IGROV1 ovarian = test system: IGROV1 ovarian
K-562 leukemia = test system: K-562 leukemia
A498 renal = test system: A498 renal
COLO 205 colon = test system: COLO 205 colon
UACC-62 melanoma = test system: UACC-62 melanoma
SK-MEL-2 melanoma = test system: SK-MEL-2 melanoma
OVCAR-5 ovarian = test system: OVCAR-5 ovarian
NCI-H522 lung = test system: NCI-H522 lung
LOX IMVI melanoma = test system: LOX IMVI melanoma
HS 578T breast = test system: HS 578T breast
ACHN renal = test system: ACHN renal
MDA-MB-468 breast = test system: MDA-MB-468 breast
MDA-MB-231 breast = test system: MDA-MB-231 breast
HCC-2998 colon = test system: HCC-2998 colon
NCI-H460 lung = test system: NCI-H460 lung
NCI-H23 lung = test system: NCI-H23 lung
MDA-MB-435 = test system: MDA-MB-435
SW-620 colon = test system: SW-620 colon
HT29 colon = test system: HT29 colon
SN12C renal = test system: SN12C renal
MCF7 breast = test system: MCF7 breast
SF-539 CNS = test system: SF-539 CNS
MOLT-4 leukemia = test system: MOLT-4 leukemia
TK-10 renal = test system: TK-10 renal
HOP-62 NSCLC = test system: HOP-62 NSCLC
BT-549 breast = test system: BT-549 breast
OVCAR-4 ovarian = test system: OVCAR-4 ovarian
SK-MEL-5 melanoma = test system: SK-MEL-5 melanoma
HL-60(TB) leukemia = test system: HL-60(TB) leukemia

## O=c1oc2ccc(-c3ccc(F)cc3F)cc2c(=O)n1-c1ccc(F)c(Cl)c1
HCT-116 colon
  GI50: 3.01 µM
  TGI: 10.1 µM
UACC-257 melanoma
  GI50: 2.07 µM
  TGI: 6.51 µM
NCI-H226 lung
  GI50: 1.98 µM
  TGI: 7.01 µM
SK-OV-3 ovarian
  GI50: 2.41 µM
  TGI: 6.33 µM
SF-268 CNS
  GI50: 2.69 µM
  TGI: 11.6 µM
M14 melanoma
  GI50: 3.28 µM
  TGI: 11.1 µM
HOP-92 NSCLC
  GI50: 0.808 µM
  TGI: 4.78 µM
HCT-15 colon
  GI50: 3.17 µM
  TGI: 14.9 µM
OVCAR-8 ovarian
  GI50: 3.55 µM
  TGI: 25.4 µM
PC-3 prostate
  GI50: 3.18 µM
  TGI: 13.7 µM
RXF 393 renal
  GI50: 1.77 µM
  TGI: 5.67 µM
SR leukemia
  GI50: 2.96 µM
  TGI: 20.5 µM
OVCAR-3 ovarian
  GI50: 3.13 µM
  TGI: 11.9 µM
SK-MEL-28 melanoma
  GI50: 3.29 µM
  TGI: 12.7 µM
UO-31 renal
  GI50: 2.4 µM
  TGI: 9.98 µM
786-0 renal
  GI50: 2.38 µM
  TGI: 7.2 µM
SF-295 CNS
  GI50: 2.68 µM
  TGI: 7.72 µM
A549 NSCLC
  GI50: 2.87 µM
  TGI: 15 µM
T-47D breast
  GI50: 2.28 µM
  TGI: 6.71 µM
U251 CNS
  GI50: 2.9 µM
  TGI: 11.7 µM
CCRF-CEM leukemia
  GI50: 3.69 µM
  TGI: 35.4 µM
SNB-75 CNS
  GI50: 1.59 µM
  TGI: 5.77 µM
CAKI-1 renal
  GI50: 1.72 µM
  TGI: 5.11 µM
RPMI-8226 leukemia
  GI50: 1.62 µM
  TGI: 6.62 µM
MALME-3M melanoma
  GI50: 2.03 µM
  TGI: 5.65 µM
DU-145 prostate
  GI50: 4.12 µM
  TGI: 25.3 µM
KM12 colon
  GI50: 2.97 µM
  TGI: 9.62 µM
EKVX NSCLC
  GI50: 3 µM
  TGI: 21.3 µM
SNB-19 CNS
  GI50: 3.79 µM
  TGI: 23.8 µM
IGROV1 ovarian
  GI50: 3.49 µM
  TGI: 17.4 µM
K-562 leukemia
  GI50: 2.12 µM
  TGI: > 100 µM
A498 renal
  GI50: 2.25 µM
  TGI: 6.36 µM
COLO 205 colon
  GI50: 12.3 µM
  TGI: 26.2 µM
UACC-62 melanoma
  GI50: 1.88 µM
  TGI: 5.01 µM
SK-MEL-2 melanoma
  GI50: 2.09 µM
  TGI: 4.56 µM
OVCAR-5 ovarian
  GI50: 3.68 µM
  TGI: 20.6 µM
NCI-H522 lung
  GI50: 1.85 µM
  TGI: 6.39 µM
LOX IMVI melanoma
  GI50: 3.69 µM
  TGI: 12.2 µM
HS 578T breast
  GI50: 2.42 µM
  TGI: 7.45 µM
ACHN renal
  GI50: 3.06 µM
  TGI: 10.1 µM
MDA-MB-468 breast
  GI50: 2.25 µM
  TGI: 5.84 µM
MDA-MB-231 breast
  GI50: 1.37 µM
  TGI: 3.77 µM
HCC-2998 colon
  GI50: 3.42 µM
  TGI: 12.4 µM
NCI-H460 lung
  GI50: 2.93 µM
  TGI: 9.93 µM
NCI-H23 lung
  GI50: 2.21 µM
  TGI: 6.45 µM
MDA-MB-435
  GI50: 2.58 µM
  TGI: 7.95 µM
SW-620 colon
  GI50: 3.43 µM
  TGI: 13 µM
HT29 colon
  GI50: 9.51 µM
  TGI: 27.3 µM
SN12C renal
  GI50: 2.16 µM
  TGI: 8.67 µM
MCF7 breast
  GI50: 3.27 µM
  TGI: 56.9 µM
SF-539 CNS
  GI50: 3.16 µM
  TGI: 10.4 µM
MOLT-4 leukemia
  GI50: 3.83 µM
  TGI: 45.1 µM
TK-10 renal
  GI50: 3.11 µM
  TGI: 9.19 µM
HOP-62 NSCLC
  GI50: 2.38 µM
  TGI: 6.66 µM
BT-549 breast
  GI50: 1.8 µM
  TGI: 4.14 µM
OVCAR-4 ovarian
  GI50: 3.24 µM
  TGI: 39.6 µM
SK-MEL-5 melanoma
  GI50: 1.46 µM
  TGI: 3.03 µM

## O=C(/C=C/c1ccco1)c1nc2ccccc2n1Cc1ccc(Br)cc1
HCT-116 colon
  GI50: 15 µM
  TGI: 61.7 µM
UACC-257 melanoma
  GI50: 17.4 µM
  TGI: 68.4 µM
NCI-H226 lung
  GI50: 19.3 µM
  TGI: 53 µM
SK-OV-3 ovarian
  GI50: 34.5 µM
  TGI: > 100 µM
HL-60(TB) leukemia
  GI50: 12.7 µM
  TGI: > 100 µM
SF-268 CNS
  GI50: 27.2 µM
  TGI: > 100 µM
M14 melanoma
  GI50: 18.9 µM
  TGI: 38.3 µM
HOP-92 NSCLC
  GI50: 5.77 µM
  TGI: 33.5 µM
HCT-15 colon
  GI50: 6.96 µM
  TGI: 23.2 µM
OVCAR-8 ovarian
  GI50: 16.6 µM
  TGI: 39.7 µM
PC-3 prostate
  GI50: 23.9 µM
  TGI: > 100 µM
RXF 393 renal
  GI50: 9.57 µM
  TGI: 22.1 µM
SR leukemia
  GI50: 9.23 µM
  TGI: > 100 µM
OVCAR-3 ovarian
  GI50: 8.02 µM
  TGI: 30.4 µM
SK-MEL-28 melanoma
  GI50: 15.6 µM
  TGI: 32.1 µM
UO-31 renal
  GI50: 11 µM
  TGI: 26.4 µM
786-0 renal
  GI50: 21.3 µM
  TGI: 76.4 µM
SF-295 CNS
  GI50: 16.7 µM
  TGI: 42.1 µM
A549 NSCLC
  GI50: 21.2 µM
  TGI: > 100 µM
T-47D breast
  GI50: 6.12 µM
  TGI: > 100 µM
U251 CNS
  GI50: 12 µM
  TGI: 26.8 µM
CCRF-CEM leukemia
  GI50: 12.3 µM
  TGI: > 100 µM
SNB-75 CNS
  GI50: 13 µM
  TGI: > 100 µM
CAKI-1 renal
  GI50: 14 µM
  TGI: > 100 µM
RPMI-8226 leukemia
  GI50: 15.8 µM
  TGI: > 100 µM
MALME-3M melanoma
  GI50: 16 µM
  TGI: 33.9 µM
DU-145 prostate
  GI50: 21 µM
  TGI: > 100 µM
KM12 colon
  GI50: 12.5 µM
  TGI: 34.3 µM
EKVX NSCLC
  GI50: 26.2 µM
  TGI: > 100 µM
SNB-19 CNS
  GI50: 14.4 µM
  TGI: 34.7 µM
IGROV1 ovarian
  GI50: 15.6 µM
  TGI: 63.7 µM
K-562 leukemia
  GI50: 10.6 µM
  TGI: > 100 µM
A498 renal
  GI50: 28.7 µM
  TGI: 65.3 µM
COLO 205 colon
  GI50: 17.6 µM
  TGI: 34.1 µM
UACC-62 melanoma
  GI50: 10.8 µM
  TGI: 26.2 µM
SK-MEL-2 melanoma
  GI50: 16.3 µM
  TGI: 35.7 µM
OVCAR-5 ovarian
  GI50: 17.9 µM
  TGI: 38.1 µM
NCI-H522 lung
  GI50: 15.6 µM
  TGI: 38.9 µM
LOX IMVI melanoma
  GI50: 12.2 µM
  TGI: 27.3 µM
HS 578T breast
  GI50: 30.4 µM
  TGI: > 100 µM
ACHN renal
  GI50: 22 µM
  TGI: 69.1 µM
MDA-MB-468 breast
  GI50: 7.31 µM
  TGI: 26.9 µM
MDA-MB-231 breast
  GI50: 14 µM
  TGI: 34.6 µM
HCC-2998 colon
  GI50: 14.9 µM
  TGI: 28.8 µM
NCI-H460 lung
  GI50: 15.2 µM
  TGI: 38.1 µM
NCI-H23 lung
  GI50: 13.7 µM
  TGI: 42.3 µM
MDA-MB-435
  GI50: 15 µM
  TGI: 36.9 µM
SW-620 colon
  GI50: 12.1 µM
  TGI: 48.4 µM
HT29 colon
  GI50: 31.1 µM
  TGI: > 100 µM
SN12C renal
  GI50: 19.9 µM
  TGI: 52.5 µM
MCF7 breast
  GI50: 2.9 µM
  TGI: > 100 µM
SF-539 CNS
  GI50: 17.8 µM
  TGI: 35 µM
MOLT-4 leukemia
  GI50: 6.57 µM
  TGI: > 100 µM
TK-10 renal
  GI50: 32.8 µM
  TGI: > 100 µM
HOP-62 NSCLC
  GI50: 19.7 µM
  TGI: 49.2 µM
BT-549 breast
  GI50: 13.8 µM
  TGI: 35.7 µM
OVCAR-4 ovarian
  GI50: 23.6 µM
  TGI: > 100 µM
SK-MEL-5 melanoma
  GI50: 14.1 µM
  TGI: 28 µM
